Data from patent US11548875B2, “Inhibitor compounds for male contraception” (University of Washington, priority 2018, dated 2023).
Where two headings read alike, the source gives them in different places.

Experiments:
ALDH1A1 = biological target: T1, ALDH1A1 (Homo sapiens, UniProt P00352); assay: Cell-based enzyme assay, retinoic acid production in ALDH1A1/H1299 cells
T1 sequence (P00352 1-501): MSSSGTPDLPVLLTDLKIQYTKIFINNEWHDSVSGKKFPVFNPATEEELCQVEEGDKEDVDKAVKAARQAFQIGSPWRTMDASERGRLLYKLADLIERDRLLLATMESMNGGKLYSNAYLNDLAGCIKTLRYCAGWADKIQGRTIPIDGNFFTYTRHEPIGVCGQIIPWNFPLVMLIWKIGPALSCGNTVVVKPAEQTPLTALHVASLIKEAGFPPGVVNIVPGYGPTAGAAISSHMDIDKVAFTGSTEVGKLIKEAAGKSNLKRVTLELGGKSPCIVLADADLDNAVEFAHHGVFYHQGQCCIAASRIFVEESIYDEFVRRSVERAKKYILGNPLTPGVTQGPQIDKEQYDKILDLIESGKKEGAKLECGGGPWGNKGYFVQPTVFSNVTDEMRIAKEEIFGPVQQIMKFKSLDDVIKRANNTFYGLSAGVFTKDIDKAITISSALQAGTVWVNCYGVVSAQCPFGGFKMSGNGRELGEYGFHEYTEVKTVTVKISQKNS
Summary of the method: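 ALDH1A1- or ALDH1A2-stably transfected H1299 cells grown to confluence, then treated 20 h in serum-free RPMI-1640 with 2 μM all-trans-retinal plus varying inhibitor concentrations at 37 °C. Retinoic acid in cells and media quantified; inhibition from RA levels with vs without inhibitor.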

ALDH1A2 = biological target: T2, ALDH1A2 (Homo sapiens, UniProt O94788); assay: Inhibitor screening using purified enzymes: ALDH1A2 activity, retinoic acid production by HPLC (5 uM initial screen, then IC50); assay type: biochemical; parameters: histidine-tag (C); made in house; host or cells: bacterial expression (pET28 vector, IPTG induction); conditions: purified enzyme
T2 sequence (O94788 1-518): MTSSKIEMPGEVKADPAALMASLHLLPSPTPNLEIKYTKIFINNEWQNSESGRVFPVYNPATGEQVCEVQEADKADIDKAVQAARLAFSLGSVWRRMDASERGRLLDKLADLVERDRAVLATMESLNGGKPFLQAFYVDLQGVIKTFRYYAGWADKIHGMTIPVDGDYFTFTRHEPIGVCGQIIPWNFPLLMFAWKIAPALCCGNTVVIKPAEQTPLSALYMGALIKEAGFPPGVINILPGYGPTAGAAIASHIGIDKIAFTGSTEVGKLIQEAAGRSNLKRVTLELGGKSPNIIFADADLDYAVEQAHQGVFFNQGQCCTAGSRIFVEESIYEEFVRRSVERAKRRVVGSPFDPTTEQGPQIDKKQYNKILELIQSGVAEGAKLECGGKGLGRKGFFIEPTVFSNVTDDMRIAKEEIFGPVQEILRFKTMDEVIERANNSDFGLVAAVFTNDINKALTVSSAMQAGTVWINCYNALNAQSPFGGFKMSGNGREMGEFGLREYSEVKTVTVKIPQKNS
Summary of the method: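 Purified His-tagged human enzymes in 10 mM HEPES pH 8.0, 150 mM KCl, 2 mM EDTA with 2 mM NAD, all-trans-retinal substrate; retinoic acid quantified by HPLC. ALDH1A2 initial screen: 1 μg enzyme, 5 μM retinal, 5 μM inhibitor, 15 min, 37° C; IC50 runs: 0.5 μg enzyme, 0.5 μg retinal, 5 min, 37° C.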

For `CS(=O)(=O)c1ccc(-c2nn(-c3ccc(F)cc3)cc2C(=O)Nc2cccc(F)c2)cc1` [Compound 241, N-(3-Fluorophenyl)-3-[4-(methylsulfonyl)phenyl]-1-(4-fluorophenyl)-1H-pyrazole-4-carboxamide], the EC50 (ALDH1A1; cell-based) was 10.9 µM and the IC50 (ALDH1A2) was 0.092 µM.

For `O=Cc1cn(-c2ccccc2)nc1-c1ccc(O)cc1` [Cmpd 34], the EC50 (ALDH1A1; cell-based) was 0.469 µM and the IC50 (ALDH1A2) was 1.73 µM.

`Cn1cccc1C(=O)N1CCN(c2ccc(-c3ccc([N+](=O)[O-])cc3)c(N3CCCCC3)c2)CC1` [Compound 373] showed an EC50 (ALDH1A1) of 0.37 µM and an IC50 (ALDH1A2) of 2.13 µM.

In the case of `N#Cc1ccc(-n2cc(C(=O)Nc3cccc(F)c3)c(-c3ccc(NC(=O)C(Cl)Cl)cc3)n2)cc1` [Compound 316a, 3-(4-Dichloroacetamidophenyll)-N-(3-fluorophenyl)-1-(4-cyanophenyl)-1H-pyrazole-4-carboxamide], the EC50 (ALDH1A1; cell-based) is reported as 0.18 µM and the IC50 (ALDH1A2) is reported as 0.037 µM.

For `CS(=O)(=O)c1ccc(-c2nn(-c3ccccc3)cc2C(=O)Nc2cccc(Cl)c2)cc1` [Compound 219, 3-(4-(Methylsulfonyl)phenyl)-N-(3-chlorophenyl)-1-phenyl-1H-pyrazole-4-carboxamide], the EC50 (ALDH1A1; cell-based) was greater than 20 µM and the IC50 (ALDH1A2) was 0.606 µM.

`CCS(=O)(=O)c1ccc(-c2nn(-c3ccccc3)cc2C(=O)Nc2cccc(F)c2)cc1` [Compound 223, 3-(4-(Ethylsulfonyl)phenyl)-N-(3-fluorophenyl)-1-phenyl-1H-pyrazole-4-carboxamide] showed an EC50 (ALDH1A1; cell-based) of 1.3 µM and an IC50 (ALDH1A2) of 0.208 µM.

“3-(4-Acryloylphenyl)-1-phenyl-1H-pyrazole-4-carbaldehyde [Compound 309]” gave an EC50 (ALDH1A1; cell-based) of 0.73 µM and an IC50 (ALDH1A2) of 0.005 µM.

`CS(=O)(=O)c1ccc(-c2nn(-c3cccc(F)c3)cc2C(=O)Nc2cccc(C(F)(F)F)c2)cc1` [Compound 266, 1-(3-Fluorophenyl)-N-(3-trifluoromethylphenyl)-3-[4-(methylsulfonyl)phenyl]-1H-pyrazole-4-carboxamide] was tested, and the EC50 (ALDH1A1; cell-based) was greater than 20 µM and the IC50 (ALDH1A2) was 0.029 µM.

In the case of `O=C(c1ccccc1)N1CCN(c2ccc([N+](=O)[O-])c(N3CCCC3)c2)CC1` [Compound 339, Phenyl-1-{4-[4-nitro-3-(pyrrolidin-1-yl)phenyl]piperazin-1-yl}methanone], the EC50 (ALDH1A1) is reported as 0.333 µM and the IC50 (ALDH1A2) is reported as 0.837 µM.
